# Paper PMC3663881 (Journal of biomolecular screening, 2013)
# T1: GB1b-RhaR (UniProt P09378 1-282)
# T1 sequence: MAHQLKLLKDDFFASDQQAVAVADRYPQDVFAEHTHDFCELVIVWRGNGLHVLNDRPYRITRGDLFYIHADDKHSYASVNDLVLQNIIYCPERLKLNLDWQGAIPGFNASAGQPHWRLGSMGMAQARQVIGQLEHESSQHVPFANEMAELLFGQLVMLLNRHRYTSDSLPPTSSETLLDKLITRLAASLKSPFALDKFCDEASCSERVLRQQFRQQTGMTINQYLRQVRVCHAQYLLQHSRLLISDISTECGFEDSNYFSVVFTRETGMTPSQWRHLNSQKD
# How the values were obtained:
# RhaS = RhaS (Escherichia coli, UniProt P09377, L201R); experiment: EMSA, inhibition of DNA binding by purified protein
# RhaS, sequence (P09377 whole entry L201R): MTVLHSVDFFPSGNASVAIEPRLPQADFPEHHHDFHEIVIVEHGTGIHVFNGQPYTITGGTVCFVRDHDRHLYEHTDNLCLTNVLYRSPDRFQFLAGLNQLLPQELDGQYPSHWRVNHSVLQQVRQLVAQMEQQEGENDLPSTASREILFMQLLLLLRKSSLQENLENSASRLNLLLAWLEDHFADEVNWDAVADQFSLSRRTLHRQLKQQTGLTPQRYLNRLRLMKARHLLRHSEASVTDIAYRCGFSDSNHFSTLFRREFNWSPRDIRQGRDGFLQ
# RhaR = RhaR (Escherichia coli, UniProt P09378); experiment: as above
# GB1b-RhaR = target: T1, GB1b-RhaR; experiment: EMSA
# LacI = LacI (UniProt P03023 1-360); experiment: EMSA
# LacI, sequence (P03023 whole entry): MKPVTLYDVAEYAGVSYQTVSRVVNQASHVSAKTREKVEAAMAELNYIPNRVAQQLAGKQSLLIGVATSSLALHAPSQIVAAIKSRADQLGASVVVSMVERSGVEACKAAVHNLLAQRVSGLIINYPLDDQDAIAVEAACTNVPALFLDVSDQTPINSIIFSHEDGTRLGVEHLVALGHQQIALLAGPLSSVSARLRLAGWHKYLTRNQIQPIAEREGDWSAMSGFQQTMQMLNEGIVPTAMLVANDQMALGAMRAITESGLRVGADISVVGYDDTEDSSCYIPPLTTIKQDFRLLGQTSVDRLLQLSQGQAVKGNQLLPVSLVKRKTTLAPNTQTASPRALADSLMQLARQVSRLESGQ
molecule,measurement,setting,value
"CCCCN1C=C(c2ccc3ccccc3n2)C(C[N+](=O)[O-])c2ccccc21 (stereo not shown) [OSSL_051168, 1-butyl-4-nitromethyl-3-quinolin-2-yl-4H-quinoline]",IC50,RhaS,~70 µM
same,IC50,RhaR,~140 µM
RhaR site probe (oligos 3056/3287) (dsDNA) DNA 1: CGCTGTATCTTGAAAAATCGACGTTTTTTACGTGGTTTTCCGTCGAAAATTTAAGGTAAGAAC DNA 2: GTTCTTACCTTAAATTTTCGACGGAAAACCACGTAAAAAACGTCGATTTTTCAAGATACAGCG,binding result,GB1b-RhaR,binds
lac O1 probe (IR O1-For/O1-Rev) (dsDNA) DNA 1: TGTTGTGTGGAATTGTGAGCGGATAACAATTTCACACAGG DNA 2: CCTGTGTGAAATTGTTATCCGCTCACAATTCCACACAACA,binding result,LacI,binds
